Values of other authors as cited in US20210346497A1, “Methods of Treating Cancer” (Tesaro, Inc., priority 2018, published 2021).

Key:
[1] = test system: cancer cell lines silenced for BRCA-1 or BRCA-2, or carrying BRCA-1 or BRCA-2 mutations
[2] = test system: tumor cell
[3] = test system: PARP activity in various cell lines
[4] = test system: MDA-MB-436, CAPAN-1, GRANTA-519, OVCAR3, HT29, DLD-1, patient derived Ewing's sarcoma and TNBC xenograft models; conditions: BRCA-1 mutant breast, BRCA-2 mutant pancreatic, ATM-mutant mantle cell lymphoma, serous ovarian, colorectal, TNBC xenografts in mice
[5] = test system: normal human cells

Cc1ccc(S(=O)(=O)O)cc1.NC(=O)c1cccc2cn(-c3ccc([C@@H]4CCCNC4)cc3)nc12 [Niraparib, (3S)-3-[4-{7-(aminocarbonyl)-2H-indazol-2-yl}phenyl]piperidine]
anti-proliferative activity ([1]; BRCA-1/BRCA-2 silenced or mutant cancer cell lines compared to wild type counterparts): selective anti-proliferative activity | consequence on cell cycle of BRCA-defective cells ([1]; BRCA-defective cells): cell cycle arrest in G2/M followed by apoptosis | cell cycle arrest [2]: arrest in the G2/M phase of the cell cycle | IC50 ([3]; read-out: IC50 of PARP activity in cells, PARP activity stimulated by DNA damage caused by hydrogen peroxide): ~4 nM | IC90 ([3]; read-out: inhibitory concentration at 90% of control (IC90) of PARP activity in cells, PARP activity stimulated by DNA damage caused by hydrogen peroxide): ~50 nM | antitumor activity in vivo [4]: strong antitumor activity | activity on normal human cells [5]: weak activity
